Tested on: RSK-substrates (RXXpS/T phospho-peptides)
Experiment: Phospho-proteomics with anti-RXXpS/T enrichment in IFN-γ-stimulated macrophages
Assay type: cell-based, human
Details: BI-D1870 +IFNg, IP:RXXpS/T, DMSO = 1.00
Description: (FIG. 6A) Scheme of phospho-proteomics. Human PBMC-derived macrophages were treated with DMSO or BI-D1870 for two hours followed by IFN-γ stimulation for subsequent proteolysis and phospho-peptide enrichment using the anti-RXXpS/T antibody strategy. […] N=2 donors. […] The average shortest distance of the same number of randomly selected genes to disease genes was calculated for N=250 realizations in order to compare the average shortest distance value to random expectation. Empirical p-values were calculated based on 100 degree-preserved randomizations of the first neighbor networks.
Phospho-proteomics. Phospho-peptide immunoaffinity purification from cell lysates was performed as described previously (36), with minor modifications. Human PBMC-derived macrophages were pretreated with DMSO or BI-D1870 followed by IFN-γ stimulation. Cell lysates (8.0 mg) were proteolyzed (Lys-C, Wako Chemicals) using in-solution urea strategy detailed previously (34). Trifluoroacetic acid (TFA) was added to protein digests to a final concentration of 1%, precipitate was removed by centrifugation, and digests were loaded onto Sep-Pak C18 columns (Waters) equilibrated with 0.1% TFA. Columns were washed with 0.1% TFA and wash buffer (0.1% TFA, 5% acetonitrile). A peptide fraction was obtained by elution with elution buffer (0.1% TFA, 40% acetonitrile). The peptide eluate was frozen overnight and lyophilize frozen peptide solution for 2 days. Peptides were dissolved in 1.4 mL of IAP buffer (Cell signaling Technology). Insoluble matter was removed by centrifugation. […] The immobilized antibody beads were washed three times with 1 ml IAP buffer and three times with 1 ml water, all at 4° C. Peptides were eluted from beads by incubation with 55 μl of 0.15% TFA at room temperature for 10 minutes (eluate 1), followed by a wash of the beads (eluate 2) with 50 μl of 0.15% TFA. Both eluates were combined. The peptide solution was desalted using Oasis Hlb 1 cc columns (Waters), dried in a SpeedVac, resuspend with Trypsin solution, and digested overnight. After desalting using Oasis Hlb 1 cc columns, peptides were dried in a SpeedVac, and resuspend with 40 μl of 5% acetonitrile and 0.5% formic acid for subsequent analysis by liquid chromatography/mass spectrometry (LC/MS).
Each peptide sample was analyzed four times: a full scan range of 350-1800 m/z and three gas phase separation scans—350-500 m/z, 500-700 m/z, and 700-1200 m/z in order to increase phospho-peptide signals.
Phospho-proteomics and kinase assays. The MS/MS data were queried as above using a 10-ppm tolerance window in the MS1 search space, and a 0.02 Da fragment tolerance window for EThcD or HCD. Methionine oxidation, and phosphorylation of serine and threonine were set as variable modifications, and carbamidomethylation of cysteine residues was set as fixed modifications. High confidently assigned phospho-peptides were used for precursor ion area under the curve (AUC) quantification. The peptides that were detected in IgG conditions were considered as non-specific signals and excluded. The normalized precursor ion intensities were exported from PD2.1.

CC(C)CCN1c2nc(Nc3cc(F)c(O)c(F)c3)ncc2N(C)C(=O)C1C (stereo not drawn) [BI-D1870]
Intensity of phospho-peptide SLC20A1 S335 [R].ERLPSVDLK.[E] (DMSO +IFNg = 1.51): 0.51
Intensity of phospho-peptide LUC7L3 T238 [R].KRTEEPDRDER.[L] (DMSO +IFNg = 1.55): 1.03
Intensity of phospho-peptide STX7 S129 [R].ASSRVSGSFPEDSSK.[E] (DMSO +IFNg = 1.60): 0.67
Intensity of phospho-peptide AP1AR T228 [R].SKTEEDILR.[A] (DMSO +IFNg = 1.67): 0.80
Intensity of phospho-peptide AKAP13 T2471 [R].RAETFGGFDSHQMNASK.[G] (DMSO +IFNg = 1.68): 0.73
Intensity of phospho-peptide CLASP1 S646 [R].RQSSGSATNVASTPDNR.[G] (DMSO +IFNg = 1.75): 0.94
Intensity of phospho-peptide TRPM7 S1504 [R].RPSTEDTHEVDSK.[A] (DMSO +IFNg = 1.75): 0.73
Intensity of phospho-peptide SLC4A7 S407 [R].ENSTVDFSK.[VEG] (DMSO +IFNg = 1.79): 1.61
Intensity of phospho-peptide IFNGR1 T295 [R].SATLETKPESK.[Y] (DMSO +IFNg = 1.83): 0.77
Intensity of phospho-peptide RPS6 S235 [K].RRRLSSLRASTSK.[S] (DMSO +IFNg = 1.86): 0.74
Intensity of phospho-peptide REPS1 S650 [R].LKSEDELRPEVDEHTQK.[T] (DMSO +IFNg = 1.91): 0.94
Intensity of phospho-peptide REPS1 S650 [R].RLKSEDELRPEVDEHTQK.[T] (DMSO +IFNg = 1.96): 1.09
Intensity of phospho-peptide GPBP1 S49 [R].HNSSDGFDSAIGRPNGGNFGR.[K] (DMSO +IFNg = 2.05): 0.45
Intensity of phospho-peptide MYO1E T935 [R].RNTTQNTGYSSGTQNANYPVR.[A] (DMSO +IFNg = 2.15): 0.88
Intensity of phospho-peptide CHP1 T7 [R].ASTLLRDEELEEIKK.[E] (DMSO +IFNg = 2.18): 1.00
Intensity of phospho-peptide NDRG3 S338 [R].THSTSSSLGSGESPFSR.[S] (DMSO +IFNg = 2.25): 1.07
Intensity of phospho-peptide GPBP1 S49 [R].RHNSSDGFDSAIGRPNGGNFGR.[K] (DMSO +IFNg = 2.28): 1.00
Intensity of phospho-peptide NDRG1 S330 [R].TASGSSVTSLDGTR.[S] (DMSO +IFNg = 2.29): 1.88
Intensity of phospho-peptide STK11IP S398 [R].RASISEPSDTDPEPR.[T] (DMSO +IFNg = 2.31): 0.58
Intensity of phospho-peptide EIF4B S422 [R].TGSESSQTGTSTTSSR.[SN] (DMSO +IFNg = 2.58): 1.29
Intensity of phospho-peptide SPECC1L T838 [R].RSSTSSEPTPTVK.[T] (DMSO +IFNg = 2.80): 1.80
Intensity of phospho-peptide AKT1S1 T266 [R].LNTSDFQK.[L] (DMSO +IFNg = 3.11): 0.89
Intensity of phospho-peptide RPS6 S235; S236 [R].RLSSLRASTSK.[S] (DMSO +IFNg = 3.46): 1.65
Intensity of phospho-peptide FLNA S2152 [R].RAPSVANVGSHCDLSLK.[I] (DMSO +IFNg = 3.67): 1.32
